For the experiment, the system named is interleukin-8 secreted by normal human epidermal keratinocytes (NHEKs). Nature of the experiment: Inhibition of interleukin-8 secretion by NHEK cells after stimulation with PMA as irritant agent. Type of experiment: cell-based. The settings on record: 160 nM PMA. From the text: Inhibition of the response of superficial epidermal cells to an irritant agent by assay of the interleukin-8 secreted by normal human epidermal keratinocytes (NHEKS) after stimulation with phorbol 12-myristate 13-acetate (PMA) as irritant agent.
This study uses the test developed by Wilmer [Wilmer, J. L. et al., J. invest. Dermatol., 102: 915-922 (1994)]. This test allows the evaluation of the antiirritant potential of various molecules, on a human keratinocyte (NHEK) cell line. In this test, an irritant situation is mimicked by exacerbating the production of IL-8 of the NHEKs by adding PMA to the culture medium, IL-8 being involved in initiating the keratinocyte irritation. The antiirritant effect of a molecule is then measured by means of its inhibitory action with respect to this exacerbated production.
Normal human epidermal keratinocytes (NHEKs) sold by the company Clonetics and distributed in France by the company TEBU are incubated in the presence of 160 nM of PMA for 24 hours at 37° C. In response to the PMA, the production of the chemotactic agent interleukin-8 (IL-8) is measured by enzymatic assay using an assay kit (Elisa D8050) sold by the company R&D. The absorbance values are measured using a microplate reader (MRX/Dynatech) according to the procedures supplied with the assay kit. To evaluate the antiirritant protective effect of the various compounds, the production of the chemotactic marker IL-8 by the human keratinocytes is measured in the presence of various concentrations of the test compound.
The results are expressed as a percentage of the control values after subtracting the background noise and as a percentage of inhibition of these values obtained in the presence of the compounds.

Setting [1] is: Study No. 2 (Comparative Tests), compound at 10 μM, same batch of NHEK cells, 24 hours, read-out: % inhibition of secretion of IL-8.

Read-outs that look alike come from different tables or passages of the source.

The source of these data is US20040162328A1, “Compounds of the family of 3-alkyl-(4,5-diphenyl-imidazol-1-yl) and their use as soothing agents” (priority 2001, published 2004).

What is called inhibition is the change of the read-out against control, counted positive when it falls. With `c1ccc(-c2ncn(CCCN3CCOCC3)c2-c2ccccc2)cc1` [Example 1, 4-[3-(4,5-diphenylimidazol-1-yl)-propyl]morpholine], the inhibition at 1 µM (Study No. 1, compound at 1 μM, NHEK, 24 hours at 37° C., read-out: % inhibition of secretion of IL-8 (at 1 μM)) came to 86%. In addition, the inhibition at 10 µM reads like this: (Study No. 1, compound at 10 μM, NHEK, 24 hours at 37° C., read-out: % inhibition of secretion of IL-8 (at 10 μM)) 95%; under setting [1], 35%.
As for `COC(=O)CCCCn1cnc(-c2ccccc2)c1-c1ccccc1` [Example 2, methyl (4,5-diphenyl-imidazole)-1-ylbutyl-4-carboxylate], the inhibition at 10 µM under setting [1] was found to be 10%.
Turning to `O=C1c2ccccc2C(=O)N1CCCCn1cnc(-c2ccccc2)c1-c1ccccc1` [Example 3, 4-phthalimidebutyl-(4,5-diphenyl-imidazol)-1-yl], under setting [1], the inhibition at 10 µM was 39%.
With `O=C1c2ccccc2C(=O)N1CCCn1cnc(-c2ccccc2)c1-c1ccccc1` [Example 4, 3-phthalimidepropyl-(4,5-diphenyl-imidazol)-1-yl], the inhibition at 10 µM under setting [1] was determined as 37%.
Same read-out and setting: next, `COC(=O)CCCn1cnc(-c2ccccc2)c1-c1ccccc1` [Example 5, methyl (4,5-diphenyl-imidazol)-1-ylpropyl-3-carboxylate]: 22%; `c1ccc(-c2ncn(CCCN3CCCCC3)c2-c2ccccc2)cc1` [Example 6]: 41%.
Same read-out and setting: the same measure for `c1ccc(-c2ncn(CCN3CCCCC3)c2-c2ccccc2)cc1` [JP 44 029 199, reference compound]: below 10%.
